# Experimental data published in US6890736B1, “Methods for producing proteins in cultured cells” (Immunex Corporation, priority 2002, dated 2005).
# Values joined by “and” are separate entries in the source; they are usually repeats but may differ in a detail not shown here. Equal entries are not always repeated.
# Tests used:
# [1] = tested on: cell line 25H9 (CHO cells that produce IL-1R-II protein); experiment: Example 1: induction of IL-1R-II production (ELISA titer, productivity) at 31° C. or 34° C.; type: cell-based, Chinese hamster
# Protocol: (§1) The following experiment was designed to test whether decitabine can induce the production of a protein, in this case a recombinant soluble form of the human interleukin 1 receptor type II (IL-1-R-II), at either 31° C. or 34° C. Soluble versions of IL-1R-II and methods for producing it are described in U.S. Pat. No. 5,767,064. DNA encoding a soluble form of the human IL-1R-II was inserted into pG3.6, which is described in Morris et al. ((1998), Cytotechnology 28:9-17). This construct was used to transfect CHO cells to produce cell lines, including 25H9, that produce IL-1R-II protein.
# (§2) About 2×10^6 cells of cell line 25H9 were inoculated into 30 milliliters of serum-free medium and incubated at the temperatures indicated in Table 1 in vented shake flasks. At the times indicated in Table 1, samples were taken from each flask to determine IL-1R-II titer, cell number, and cell viability. IL-1R-II protein titer was determined by ELISA assay. Cell number was determined by counting cells in a hemocytometer. Cell viability was determined by trypan blue staining and counting stained cells in a hemocytometer. Cumulative viable cell density (CVCD) is the area under the curve of a plot of the viable cell density versus time (in units of cells/ml/day). Productivity (pg of IL-1R-II/cell/day) was determined by dividing the protein titer on a particular day by the CVCD on the same day. Cells were fed with amino acids on days 2 and 5, and dextrose was added periodically in order to maintain levels above 2.0 g/L. All samples were done in duplicate, and the data shown is an average value.
# [2] = Example 1: cell number (hemocytometer) and viability (trypan blue); type: cell-based, Chinese hamster; details: Chinese hamster
# Protocol: as §1, §2
# [3] = 31° C., 1 μM decitabine, day 10
# [4] = 31° C., 5 μM decitabine, day 10
# [5] = 31° C., 10 μM decitabine, day 0
# [6] = 31° C., 10 μM decitabine, day 3
# [7] = 31° C., 10 μM decitabine, day 5
# [8] = 31° C., 10 μM decitabine, day 7
# [9] = 31° C., 10 μM decitabine, day 10
# [10] = 34° C., 10 μM decitabine, day 3
# [11] = 34° C., 10 μM decitabine, day 5
# [12] = 34° C., 10 μM decitabine, day 7
smiles,measurement,setting,value
"Nc1ncn([C@H]2C[C@H](O)[C@@H](CO)O2)c(=O)n1 [decitabine, 5-aza-2′-deoxycytidine]",IL-1R-II Titer,"[1]; 31° C., 1 μM decitabine, day 0",0.0 µg/mL
same,IL-1R-II Titer,"[1]; 31° C., 1 μM decitabine, day 3",62.6 µg/mL
same,Productivity,"[1]; 31° C., 1 μM decitabine, day 3",7.5 pg IL-1R-II/cell/day
same,IL-1R-II Titer,"[1]; 31° C., 1 μM decitabine, day 5",132.0 µg/mL
same,Productivity,"[1]; 31° C., 1 μM decitabine, day 5",7.8 pg IL-1R-II/cell/day
same,IL-1R-II Titer,"[1]; 31° C., 1 μM decitabine, day 7",216.5 µg/mL
same,Productivity,"[1]; 31° C., 1 μM decitabine, day 7",7.8 pg IL-1R-II/cell/day
same,IL-1R-II Titer,[1]; [3],330.5 µg/mL
same,Productivity,[1]; [3],7.5 pg IL-1R-II/cell/day
same,IL-1R-II Titer,"[1]; 31° C., 5 μM decitabine, day 0",0.0 µg/mL
same,IL-1R-II Titer,"[1]; 31° C., 5 μM decitabine, day 3",77.8 µg/mL
same,Productivity,"[1]; 31° C., 5 μM decitabine, day 3",9.2 pg IL-1R-II/cell/day
same,IL-1R-II Titer,"[1]; 31° C., 5 μM decitabine, day 5",123.5 µg/mL
same,Productivity,"[1]; 31° C., 5 μM decitabine, day 5",7.8 pg IL-1R-II/cell/day
same,IL-1R-II Titer,"[1]; 31° C., 5 μM decitabine, day 7",210.5 µg/mL
same,Productivity,"[1]; 31° C., 5 μM decitabine, day 7",9.2 pg IL-1R-II/cell/day
same,IL-1R-II Titer,[1]; [4],351.0 µg/mL
same,Productivity,[1]; [4],8.8 pg IL-1R-II/cell/day
same,IL-1R-II titer relative to the titer observed at 31° C. with no inducer,"[1]; 31° C., 10 μM decitabine",1.7 times
same,most effective concentration for IL-1R-II titer,"[1]; 31° C., 10 μM decitabine among 1, 5, 10 μM",most effective concentration among those tested
same,IL-1R-II Titer,[1]; [5],0.0 µg/mL
same,IL-1R-II Titer,[1]; [6],59.1 µg/mL
same,Productivity,[1]; [6],8.0 pg IL-1R-II/cell/day
same,IL-1R-II Titer,[1]; [7],149.5 µg/mL
same,Productivity,[1]; [7],10.4 pg IL-1R-II/cell/day
same,IL-1R-II Titer,[1]; [8],224.5 µg/mL
same,Productivity,[1]; [8],10.4 pg IL-1R-II/cell/day
same,IL-1R-II Titer,[1]; [9],378 µg/mL and 378.0 µg/mL
same,Productivity,[1]; [9],11.9 pg IL-1R-II/cell/day
same,IL-1R-II Titer,"[1]; 34° C., 1 μM decitabine, day 0",0.0 µg/mL
same,IL-1R-II Titer,"[1]; 34° C., 1 μM decitabine, day 3",65.4 µg/mL
same,Productivity,"[1]; 34° C., 1 μM decitabine, day 3",5.7 pg IL-1R-II/cell/day
same,IL-1R-II Titer,"[1]; 34° C., 1 μM decitabine, day 5",143.5 µg/mL
same,Productivity,"[1]; 34° C., 1 μM decitabine, day 5",5.6 pg IL-1R-II/cell/day
same,IL-1R-II Titer,"[1]; 34° C., 1 μM decitabine, day 7",212.5 µg/mL
same,Productivity,"[1]; 34° C., 1 μM decitabine, day 7",5.1 pg IL-1R-II/cell/day
same,IL-1R-II Titer,"[1]; 34° C., 1 μM decitabine, day 10",206.0 µg/mL
same,IL-1R-II Titer,"[1]; 34° C., 5 μM decitabine, day 0",0.0 µg/mL
same,IL-1R-II Titer,"[1]; 34° C., 5 μM decitabine, day 3",73.6 µg/mL
same,Productivity,"[1]; 34° C., 5 μM decitabine, day 3",6.4 pg IL-1R-II/cell/day
same,IL-1R-II Titer,"[1]; 34° C., 5 μM decitabine, day 5",156.5 µg/mL
same,Productivity,"[1]; 34° C., 5 μM decitabine, day 5",6.3 pg IL-1R-II/cell/day
same,IL-1R-II Titer,"[1]; 34° C., 5 μM decitabine, day 7",218.5 µg/mL
same,Productivity,"[1]; 34° C., 5 μM decitabine, day 7",5.7 pg IL-1R-II/cell/day
same,IL-1R-II Titer,"[1]; 34° C., 5 μM decitabine, day 10",307 µg/mL and 307.0 µg/mL
same,IL-1R-II Titer,"[1]; 34° C., 10 μM decitabine, day 0",0.0 µg/mL
same,IL-1R-II Titer,[1]; [10],80.8 µg/mL
same,Productivity,[1]; [10],8.3 pg IL-1R-II/cell/day
same,IL-1R-II Titer,[1]; [11],151.5 µg/mL
same,Productivity,[1]; [11],7.9 pg IL-1R-II/cell/day
same,IL-1R-II Titer,[1]; [12],203.5 µg/mL
same,Productivity,[1]; [12],7.5 pg IL-1R-II/cell/day
same,IL-1R-II titers at 34° C. compared with 31° C.,[1]; all concentrations of decitabine at 34° C.,Lower IL-1R-II titers
same,productivity on a per cell basis,[1]; at 7 and 10 days at all concentrations and temperatures tested,increased
same,"viability at 0 day, 1 μM","[2]; 31° C., 1 μM decitabine, day 0",96.1%
same,"viability at 3 day, 1 μM","[2]; 31° C., 1 μM decitabine, day 3",93.4%
same,"viability at 5 day, 1 μM","[2]; 31° C., 1 μM decitabine, day 5",94.8%
same,"viability at 7 day, 1 μM","[2]; 31° C., 1 μM decitabine, day 7",87.7%
same,"viability at 10 day, 1 μM",[2]; [3],63.9%
same,"viability at 0 day, 5 μM","[2]; 31° C., 5 μM decitabine, day 0",96.1%
same,"viability at 3 day, 5 μM","[2]; 31° C., 5 μM decitabine, day 3",93.6%
same,"viability at 5 day, 5 μM","[2]; 31° C., 5 μM decitabine, day 5",84.6%
same,"viability at 7 day, 5 μM","[2]; 31° C., 5 μM decitabine, day 7",77.7%
same,"viability at 10 day, 5 μM",[2]; [4],58.5%
same,"viability at 0 day, 10 μM",[2]; [5],96.1%
same,"viability at 3 day, 10 μM",[2]; [6],94.5%
same,"viability at 5 day, 10 μM",[2]; [7],80.8%
same,"viability at 7 day, 10 μM",[2]; [8],72.5%
same,"viability at 10 day, 10 μM",[2]; [9],50.6%
same,"viability at 0 day, 1 μM","[2]; 34° C., 1 μM decitabine, day 0",96.1%
